# Source: paper PMC10650714, “Double Attack to Oxidative Stress in Neurodegenerative Disorders: MAO-B and Nrf2 as Elected Targets” (Molecules, 2023)
# Tests used:
# recombinant hMAO-B = biological target: T1, recombinant hMAO-B (Homo sapiens, UniProt P27338); assay: Time-dependent inhibition study on hMAO-B; assay type: biochemical; settings: pre-incubation 0 to about 20 min, 5 and 20 µM
# T1 construct: purchased Fluka-Sigma-Aldrich s.r.l; (Italy); host or cells: Baculovirus infected BT1 cells
# T1 sequence (P27338 1-520): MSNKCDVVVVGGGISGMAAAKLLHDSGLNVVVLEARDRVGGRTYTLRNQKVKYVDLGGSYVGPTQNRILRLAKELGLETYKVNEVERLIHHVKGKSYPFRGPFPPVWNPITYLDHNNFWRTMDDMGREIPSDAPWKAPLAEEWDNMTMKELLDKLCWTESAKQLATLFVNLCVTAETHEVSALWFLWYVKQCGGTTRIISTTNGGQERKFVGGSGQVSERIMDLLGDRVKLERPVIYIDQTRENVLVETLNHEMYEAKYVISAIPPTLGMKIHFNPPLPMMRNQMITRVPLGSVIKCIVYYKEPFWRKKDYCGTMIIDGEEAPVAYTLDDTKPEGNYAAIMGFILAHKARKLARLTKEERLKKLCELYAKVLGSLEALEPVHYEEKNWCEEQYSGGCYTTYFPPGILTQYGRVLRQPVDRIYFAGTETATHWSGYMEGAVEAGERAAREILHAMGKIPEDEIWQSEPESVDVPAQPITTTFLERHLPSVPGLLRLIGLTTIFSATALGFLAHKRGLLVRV
# Method: Time-dependent inhibition studies. The time-dependent inactivation by 2 was performed as previously reported. In detail, recombinant hMAO-B was pre-incubated in the K/Pi buffer for periods from 0 to about 20 min, at 37 °C in the absence (control sample) and in the presence of compound 2 (5 and 20 µM). After various pre-incubation times (at least 5 times after mixing of enzyme and inhibitor), the residual enzyme activity was determined: an aliquot of sample was withdrawn and diluted in the assay buffer (50-fold dilution) and then, the substrate was added under a “saturating” condition (Kyn = 300 µM).
# [1] = system: SH-SY5Y human neuroblastoma cells; assay: Cell viability, MTT assay; assay type: cell-based; settings: 0.5 to 50 μM, 24 h
# Method: To define the concentration range to use in the in vitro experimental settings, the cytotoxicity of compounds 1–5 was evaluated in SH-SY5Y human neuroblastoma cells, in comparison with CAPE, the reference compound for Nrf2 activation (Figure 5). Cells were treated with compounds at concentrations ranging from 0.5 to 50 μM for 24 h and cell viability was evaluated via MTT assay. All compounds were well tolerated at each concentration, resulting in no or very low reduction in cell viability.
# MTT assay, based on the mitochondrial dehydrogenase activity that reduces 3-(4,5-dimethylthiazol-2-yl)-2,5-diphenyl-tetrazolium bromide (MTT, Sigma, St Louis, MO, USA) is one of the standard assays used to measure the cellular metabolic activity as an indicator of cell viability, proliferation and cytotoxicity in a quantitative colorimetric assay. At day 0, SH-SY5Y cells were plated at a density of 2.5 × 10^4 viable cells per well in 96-well plates. After treatment, according to the experimental setting, cells were exposed to an MTT solution in serum-free medium (1 mg/mL). Following 4 h of incubation with MTT and treatment with SDS for 24 h, cell viability reduction was quantified by using a Synergy HT multidetection microplate reader (Bio-Tek).
smiles,measurement,setting,value
"O=C(/C=C/c1ccc(O)c(O)c1)Oc1ccc(CC2SC(=O)NC2=O)cc1 (stereo not drawn) [Compound 2, 4-((2,4-Dioxothiazolidin-5-yl)methyl)phenyl (E)-3-(3,4-Dihydroxyphenyl)acrylate]",time-dependent inhibition / inactivation of hMAO-B,recombinant hMAO-B,no inactivation and no time-dependent inhibition
same,cell viability / cytotoxicity,[1],not cytotoxic
same,melting point,,150 to 151 °C
